The term EC50 denotes the midpoint of the concentration-response curve. High values mean a need for much substance, low ones an effect from little substance.

Molecules are shown by their SMILES.

Consider 13 compounds from patent US20260209220A1, “SUBSTITUTED TETRAHYDROPYRROLO-PYRIDINONE COMPOUNDS AND THEIR USE IN TREATING MEDICAL CONDITIONS” (Karuna Therapeutics, Inc., priority 2022, published 2026).

Test [1] concerns the target T1, human M4 receptor (Homo sapiens, UniProt P08173).
T1 construct: expressed in transfected cells; host or cells: CHO-K1 cells (membranes)
T1 sequence (P08173 1-479): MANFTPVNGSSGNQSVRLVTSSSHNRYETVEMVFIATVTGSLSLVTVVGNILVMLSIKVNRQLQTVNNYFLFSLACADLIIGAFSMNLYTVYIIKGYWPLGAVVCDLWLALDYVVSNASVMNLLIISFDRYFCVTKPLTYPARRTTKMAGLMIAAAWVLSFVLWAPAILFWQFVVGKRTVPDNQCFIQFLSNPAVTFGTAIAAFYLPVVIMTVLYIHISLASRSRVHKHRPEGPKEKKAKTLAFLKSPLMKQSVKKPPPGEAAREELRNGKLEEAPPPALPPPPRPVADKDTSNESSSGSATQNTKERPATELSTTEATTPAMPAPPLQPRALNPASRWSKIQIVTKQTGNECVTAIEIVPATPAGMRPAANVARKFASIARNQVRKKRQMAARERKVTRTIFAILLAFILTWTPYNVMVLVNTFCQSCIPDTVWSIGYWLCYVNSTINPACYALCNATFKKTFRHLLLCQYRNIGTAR
Briefly: M4 GTPγS PAM assay (CHO-K1 membranes, 35S-GTP binding, with EC20 acetylcholine). The test is classed as biochemical. As to conditions: with EC20 acetylcholine (40 nM). On the procedure: The M4 GTPγS PAM method was used. Membranes were prepared for GTPgS binding assays from CHO-K1 cells stably expressing human M4 receptor. Briefly, cells were grown in 5-layer cell culture flasks. Cells were washed with 50 mL of PBS and then dissociated with 0.05% trypsin. Dissociated cells were then collected by centrifugation at 650×g for 8 minutes at 4° C. Pellets were washed again in PBS by centrifugation and resuspended in 30 mL of 20 mM HEPES, 10 mM EDTA, pH 7.4. After sitting on ice for 30 min, membranes were collected by centrifugation at 50000×g for 15′ at 4° C., resuspended in 30 mL of 20 mM HEPES, 0.1 mM EDTA, pH 7.4 and collected again by centrifugation. Pellets were then washed twice by centrifugation in 30 mL of 20 mM HEPES, pH 7.4, and stored at −80° C. until the day of the assay. On the day of the assay, pellets were thawed on ice and resuspended in 1 mL of 20 mM HEPES, pH 7.4, 10 mM MgCl2, 100 mM NaCl using dounce homogenization. Membrane protein concentration is determined by BCA protein assay (Promega, Madison, WI) according to Promega guidelines.
On the day of the assay, serial dilutions of test PAM compounds were brought up in assay buffer (20 mM HEPES, 10 mM MgCl2, 100 mM NaCl) at 4X final assay concentration. […] of membrane homogenates (containing […] of membrane protein) were prepared in assay buffer supplemented with GDP at […] final assay concentration (final assay concentration of GDP is 5 μM for M2 and 0.1 μM for M4) and dispensed into 96 well polypropylene, U-bottom Greiner plates. 25 ml of vehicle or test PAM compound at 4× of final assay concentration diluted in the assay buffer were added to membrane and plates are incubated for 10-15 minutes at room temperature with gentle shaking. Then, […] of EC20 acetylcholine in assay buffer at 4× final assay concentration was added to assay plates (EC20 final assay concentrations was 40 nM for human M4).
Plates were then incubated, with shaking, for an additional 10-15 minutes. […] of 0.4 nM 35S-GTP (Perkin Elmer, Waltham, MA) in assay buffer was added to assay mixtures. The binding reaction is left on the shaker for 1 hour at room temperature. Membranes in assay reactions were then transferred to GF/C filter plates (Unifilter, Perkin Elmer) and washed three times using a FilterMate Harvester (Perkin Elmer) with cold assay buffer containing no GDP. Filter plates were then dried at 40° C. overnight followed by the addition of […] of Beta Plate Scintillation liquid. Plates are top and bottom sealed before being read on TopCount scintillation counter (Perkin Elmer, Waltham, MA).

In test [2] the target is T2, hM4 receptors (Homo sapiens, UniProt P08173).
T2 construct: expressed in transfected cells; host or cells: CHO cells
T2 sequence (P08173 1-479): T1 sequence (P08173 1-479)
Nature of the test: Human M4 PAM PERK assay (CHO cells, TR-FRET, with EC20 acetylcholine). Type of test: cell-based. An outline of the steps:
(§1)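 CHO cells expressing human or rat M4, serum-starved 4 h, then given compound (10-point, 10 μM top, ½-log) with EC20 acetylcholine (10 nM final) for 5 min at 37 °C. Lysates assayed for phospho-ERK by TR-FRET after 2 h detection at RT.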
On the technique in general: In TR-FRET formats the signal depends on donor and acceptor labels being close together.

Test [3] addresses T3, rM4 receptors (Rattus norvegicus, UniProt P08485).
T3 construct: expressed in transfected cells; host or cells: CHO cells
T3 sequence (P08485 1-478): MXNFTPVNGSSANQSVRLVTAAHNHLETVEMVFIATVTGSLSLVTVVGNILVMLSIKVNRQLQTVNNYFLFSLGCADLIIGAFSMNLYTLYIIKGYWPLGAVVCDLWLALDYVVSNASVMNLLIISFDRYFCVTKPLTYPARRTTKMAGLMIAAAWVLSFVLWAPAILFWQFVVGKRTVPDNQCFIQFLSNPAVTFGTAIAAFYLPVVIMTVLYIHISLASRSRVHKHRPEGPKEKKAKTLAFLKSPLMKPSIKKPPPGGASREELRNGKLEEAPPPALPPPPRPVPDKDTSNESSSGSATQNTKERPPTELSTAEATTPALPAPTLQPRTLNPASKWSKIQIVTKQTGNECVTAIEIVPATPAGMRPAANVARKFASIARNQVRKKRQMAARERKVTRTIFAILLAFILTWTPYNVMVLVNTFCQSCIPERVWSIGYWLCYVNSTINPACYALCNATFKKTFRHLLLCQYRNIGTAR
Nature of the test: Rat M4 PAM PERK assay (CHO cells, TR-FRET, with EC20 acetylcholine). The test is classed as cell-based. An outline of the steps: as §1

`Cc1c2c(n(C)c(=O)c1Cl)CN(C(=O)CC1CN(c3ccc(F)cc3)C1)C2` [Compound I-79]: the results for the EC50 in test [1], in test [2] and in test [3] were less than 50 nM, less than 50 nM and 50 to 200 nM, respectively.
`Cc1c2c(n(C)c(=O)c1Cl)CN(C(=O)CC1CN(c3ncns3)C1)C2` [Compound I-80]: the EC50 is 50 to 200 nM in test [1], less than 50 nM in test [2] and 200 to 1000 nM in test [3].
Regarding `Cc1c2c(n(C)c(=O)c1F)CN(C(=O)CC1CN(c3ccc(C(F)(F)F)cc3)C1)C2` [Compound I-85], the EC50 was less than 50 nM in test [1], 50 to 200 nM in test [2] and 50 to 200 nM in test [3].
As to `Cc1c2c(n(C)c(=O)c1F)CN(C(=O)CC1CN(c3cnc(C(F)(F)F)cn3)C1)C2` [Compound I-90], the EC50 in test [1] lay within 200 to 1000 nM; in test [2] it was 200 to 1000 nM; in test [3] it was 50 to 200 nM.
Take `Cn1c2c(c(C(F)(F)F)cc1=O)CN(C(=O)CC1CN(c3cccnc3)C1)C2` [Compound I-91, 1-Methyl-6-(2-(1-(pyridin-3-yl)azetidin-3-yl)acetyl)-4-(trifluoromethyl)-1,5,6,7-tetrahydro-2H-pyrrolo[3,4-b]pyridin-2-one]: the EC50 in test [1] is greater than 1000 nM; in test [2], 200 to 1000 nM; in test [3] it was 200 to 1000 nM.
Take `COc1cc(N2CC(CC(=O)N3Cc4c(C(F)(F)F)cc(=O)n(C)c4C3)C2)ccn1` [Compound I-92]: the EC50 in test [1] was greater than 1000 nM; in test [2] it was 200 to 1000 nM; in test [3], greater than 1000 nM.
Regarding `Cc1c2c(n(CC(F)(F)F)c(=O)c1Cl)CN(C(=O)CC1CN(c3ccncn3)C1)C2` [Compound I-95], the EC50 in test [1] was 50 to 200 nM; in test [2] it was 50 to 200 nM; in test [3] it was greater than 1000 nM.
Regarding `COc1c2c(n(C)c(=O)c1C)CN(C(=O)CC1CN(c3ccc(C(F)(F)F)cc3)C1)C2` [Compound I-100], the figures for the EC50 in test [1], in test [2] and in test [3] were less than 50 nM, 50 to 200 nM and 200 to 1000 nM, respectively.
`Cc1cc(=O)n(CC2CC2)c2c1CN(C(=O)CC1CN(c3ccc(C(F)(F)F)cc3)C1)C2` [Compound I-102]: the results for the EC50 in test [1], in test [2] and in test [3] were 50 to 200 nM, 200 to 1000 nM and 200 to 1000 nM, respectively.
Take `Cc1cc(=O)n(C)c2c1C(C)N(C(=O)CC1CN(c3ccc(C(F)(F)F)cc3)C1)C2` (stereo not drawn) [Compound I-115]: the EC50 in test [1] fell in the range of 50 to 200 nM; in test [2], 200 to 1000 nM; in test [3], 200 to 1000 nM.
With `Cc1cc(=O)n(C)c2c1[C@H](C)N(C(=O)CC1CN(c3ccc(C(F)(F)F)cc3)C1)C2` [Compound I-116, (S)-1,4,5-trimethyl-6-(2-(1-(4-(trifluoromethyl)phenyl)azetidin-3-yl)acetyl)-1,5,6,7-tetrahydro-2H-pyrrolo[3,4-b]pyridin-2-one], the EC50 in test [1], in test [2] and in test [3] was greater than 1000 nM in each case.
Turning to `Cc1cc(=O)n(C)c2c1[C@@H](C)N(C(=O)CC1CN(c3ccc(C(F)(F)F)cc3)C1)C2` [Compound I-117, (R)-1,4,5-trimethyl-6-(2-(1-(4-(trifluoromethyl)phenyl)azetidin-3-yl)acetyl)-1,5,6,7-tetrahydro-2H-pyrrolo[3,4-b]pyridin-2-one], the EC50 was less than 50 nM in test [1], 200 to 1000 nM in test [2] and 200 to 1000 nM in test [3].
Take `Cc1c2c(n(C)c(=O)c1Cl)CN(C(=O)CC1CN(c3ccnc(C(F)(F)F)c3)C1)C2C` (stereo not drawn) [Compound I-118, 3-Chloro-1,4,5-trimethyl-6-(2-(1-(2-(trifluoromethyl)pyridin-4-yl)azetidin-3-yl)acetyl)-1,5,6,7-tetrahydro-2H-pyrrolo[3,4-b]pyridin-2-one]: the EC50 in test [1] was less than 50 nM; in test [2], less than 50 nM; in test [3] it was 50 to 200 nM.
